In patent EP0535804A1, “Peptide compounds” (HITACHI CHEMICAL CO., LTD., priority 1991, dated 1993):
Ends that are not written are not given here.

Legend:
human endothelin 1 [1] = test: Enzymeimmuno competitive inhibition assay of endothelin 1 binding to peptide resin; settings: 3 hours at room temperature
Description: After blocking those sites susceptible to nonspecific adsorption on the peptide resin obtained in (2) above with 0.2% skim milk solution, the peptide resin was immersed in 200 µl of human endothelin 1 solution (0.2 µg/ml) (prepared by dissolving in Dalbecco's phosphate buffered biological saline containing 0.1% skim milk and 0.1 % Tween 20). After allowing to react for 3 hours at room temperature while stirring gently, the resulting solution was used as sample solution (i).
Separate from the above, the wells of an ELISA microplate were coated overnight at 4°C with 200 µl of human endothelin 1 solution (1 wg/ml). […]
After washing the human endothelin 1 coated plate (ii) with washing buffer (Dalbecco's phosphate buffered biological saline containing 0.1% Tween), 50 µl of sample solution (i) was added followed immediately by the addition of 200 µl of anti-human endothelin 1 rabbit antibody solution (using Dalbecco's phosphate buffered biological saline containing 0.1% skim milk and 0.1% Tween as the dilution buffer). […] After similarly washing the plate and adding 200 µl of substrate solution (1 mg p-nitrophenyl phosphate/ml 1M diethanolamine buffer), the amount of p-nitrophenol released by the labelled enzyme present on the plate was determined by measuring the absorbance at 405 nm. […]

human endothelin 1 [2] = test: Binding activity of radioactive ligand (125I-human endothelin 1) to peptide resin; settings: 125I-human endothelin 1 solution 0.131 ng/ml, 2 hours at room temperature, gamma counter
Description: After blocking the sites susceptible to adsorption on the peptide resin obtained in (2) above with 0.2% skim milk solution, the peptide was suspended in 100 ml of ^1251-human endothelin 1 (specific activity: 74 TBq- /mmol) solution (0.131 ng/ml) (prepared by dissolving in Dalbecco's phosphate buffered biological saline containing 0.1 % skim milk and 0.1 % Tween) and allowed to react for 2 hours at room temperature. Following the binding reaction, the peptide resin was thoroughly washed with washing buffer (Dalbecco's phosphate buffered biological saline containing 0.1 % Tween), and the radioactivity bound to the peptide resin was measured with a gamma counter.

- inhibitory activity (human endothelin 1 [1]; decrease of endothelin 1 antigen activity after binding to peptide resin pins, 0.2 µg/ml): 21.1%
- antigen activity of human endothelin 1 in said sample solution (i) (human endothelin 1 [1]; remaining relative to before the binding reaction to the peptide resin pins, endothelin 1 solution 0.2 µg/ml, 200 µl): 78.9%
- amount of human endothelin 1 bound to the peptide resin (human endothelin 1 [2]): 5.18 pg
Substance: KRGFPP
